Results taken from publication PMC6353901, “Systematic characterization of position one variants within the lantibiotic nisin” (Scientific Reports, 2019).
Ends that are not written are not given here.

tested on: NisP; assay: Leader peptide cleavage of pre-nisin variants by NisP (RP-HPLC); format: biochemical, Lactococcus lactis; settings: in vitro cleavage of the leader peptide from purified pre-nisin (variant) by purified secreted NisP, overnight at 8 °C, integration of leader peptide peaks
Description: Step IV concerns leader peptide cleavage and thereby activation of the purified pre-nisin variants. Here, we used the secreted variant of the natural leader peptidase NisP, by which the leader peptide is cleaved in vitro and the cleavage efficiency (%) can be calculated as recently shown. We used an RP-HPLC set-up to monitor product formation, in which the appearance of the leader peptide in the chromatograms was used to determine the concentration of activated nisin (Supplementary Fig. S3). […] The nisin core peptide eluted at a later retention time of approximately 23 min (Supplementary Fig. S3). […] However, in the case of the I1 mutants I1A, I1G, I1T, I1S, I1K, I1R, I1H, I1Q, I1E, I1N and I1D) the formation of a core peptide peak in terms of a new and separated peak in the chromatogram was not observed (Supplementary Fig. S4). Rather, the peaks with a retention time between 18–21 min contained both species, the cleaved and non-cleaved lantibiotic, and can therefore not be deconvoluted for proper determination of the amount of activated nisin. […] The concentration was calculated based on a standard calibration curve (Supplementary Fig. S5), where we precisely determined the concentration of the activated nisin or I1 mutants. We used this concentration determination instead of the colorimetric protein concentration determination as for example Bradford or the BCA-assay since the latter two assays cannot differentiate between the activated and non-activated form of the secreted variants. Since nisin is not active unless the leader is cleaved off, the determination of the area of the leader peak to calculate the amount of the activated lantibiotic directly relates to the antimicrobial activity without need to further purify the peptide after cleavage.
All I1 mutations were subjected to NisP cleavage and most of the variants were cleaved, but a strong influence of the nature of the I1 substitutions with respect to cleavage efficiency was observed (Supplementary Fig. S6). The cleavage efficiency for wild type pre-nisin A was 94.3 ± 1.7% but lower for the mutants I1M, I1L, I1A and I1V (72.3 ± 1.4%, 72.4 ± 1.3%, 81.0 ± 1.8% and 58.1± 2.8%, respectively). […] This holds especially in those cases, where the amino acid at position one was exchanged to a charged amino acid (e.g. I1K 9.2 ± 1.3%; I1E 9.5 ± 0.7%) or contained a bulky hydrophobic side chain (e.g. I1F 12.9 ± 0.8%; I1W 5.7 ± 0.2%; I1Y 22.6 ± 2.3%) (Supplementary Fig. S6). […] Even after an extensive prolongation of the incubation time, no leader peptide peak was detected in the RP-HPLC chromatogram (Supplementary Fig. S4). It is important to stress in this context that the cleavage efficiencies cannot be determined from Tricine-SDS gels (20%). Here, the leader peptide as well as the core peptide would co-migrate, which obviously will falsify the staining results.
Pre-nisin and its variants were expressed and purified as previously described[41],[49],[69]. The purity of pre-nisin and its variants was controlled by Tricine-SDS-PAGE (20%)[70]. The activation of all variants was performed by NisP cleavage overnight at 8 °C. Pre-nisin cleavage and its variants was monitored by RP-HPLC[49],[69].
Pre-nisin and the activated nisin variants were analysed by RP-HPLC (Agilent Technologies 1260 Infinity II) with a LiChrospher WP 300 RP-18 end-capped column and an acetonitrile/water solvent system. The cleavage efficiency and the concentration of active lantibiotic was calculated as described previously[49],[69].

Row | Compound | cleavage efficiency by NisP
1 | I1P: nisin A variant, position one exchanged to P; pre-peptide not cleaved by NisP (MSTKDFNLDLVSVSKKDSGASPRPTSISLCTPGCKTGALMGCNMKTATCHCSIHVSK; ends and bridges not checked; cysteine pairing not given here; UniProt P13068 1-57, looked up, variant I1P) | not cleaved at all
2 | C=C(NC(=O)[C@@H](NC(=O)[C@H](Cc1c[nH]cn1)NC(=O)[C@@H](NC(=O)[C@H](CO)NC(=O)[C@@H]1CS[C@@H](C)[C@H]2NC(=O)[C@H](C)NC(=O)[C@H](NC(=O)[C@H](CCCCN)NC(=O)[C@H](CCSC)NC(=O)[C@H](CC(N)=O)NC(=O)[C@@H]3CS[C@@H](C)[C@@H](NC(=O)[C@H](CCCCN)NC(=O)[C@@H]4CS[C@@H](C)[C@@H](NC(=O)[C@@H]5CSC[C@@H](NC(=O)/C(=C/C)NC(=O)[C@@H](N)Cc6c[nH]c7ccccc67)C(=O)N[C@@H]([C@@H](C)CC)C(=O)NC(=C)C(=O)N[C@@H](CC(C)C)C(=O)N5)C(=O)N5CCC[C@H]5C(=O)NCC(=O)N4)C(=O)NCC(=O)N[C@@H](C)C(=O)N[C@@H](CC(C)C)C(=O)N[C@@H](CCSC)C(=O)NCC(=O)N3)[C@H](C)SC[C@H](NC2=O)C(=O)N[C@@H](Cc2c[nH]cn2)C(=O)N1)[C@@H](C)CC)C(C)C)C(=O)N[C@@H](CCCCN)C(=O)O [I1W] | 5.7 ± 0.2%
3 | C=C(NC(=O)[C@@H](NC(=O)[C@H](Cc1c[nH]cn1)NC(=O)[C@@H](NC(=O)[C@H](CO)NC(=O)[C@@H]1CS[C@@H](C)[C@H]2NC(=O)[C@H](C)NC(=O)[C@H](NC(=O)[C@H](CCCCN)NC(=O)[C@H](CCSC)NC(=O)[C@H](CC(N)=O)NC(=O)[C@@H]3CS[C@@H](C)[C@@H](NC(=O)[C@H](CCCCN)NC(=O)[C@@H]4CS[C@@H](C)[C@@H](NC(=O)[C@@H]5CSC[C@@H](NC(=O)/C(=C/C)NC(=O)[C@@H](N)Cc6ccccc6)C(=O)N[C@@H]([C@@H](C)CC)C(=O)NC(=C)C(=O)N[C@@H](CC(C)C)C(=O)N5)C(=O)N5CCC[C@H]5C(=O)NCC(=O)N4)C(=O)NCC(=O)N[C@@H](C)C(=O)N[C@@H](CC(C)C)C(=O)N[C@@H](CCSC)C(=O)NCC(=O)N3)[C@H](C)SC[C@H](NC2=O)C(=O)N[C@@H](Cc2c[nH]cn2)C(=O)N1)[C@@H](C)CC)C(C)C)C(=O)N[C@@H](CCCCN)C(=O)O [I1F] | 12.9 ± 0.8%
4 | C=C(NC(=O)[C@@H](NC(=O)[C@H](Cc1c[nH]cn1)NC(=O)[C@@H](NC(=O)[C@H](CO)NC(=O)[C@@H]1CS[C@@H](C)[C@H]2NC(=O)[C@H](C)NC(=O)[C@H](NC(=O)[C@H](CCCCN)NC(=O)[C@H](CCSC)NC(=O)[C@H](CC(N)=O)NC(=O)[C@@H]3CS[C@@H](C)[C@@H](NC(=O)[C@H](CCCCN)NC(=O)[C@@H]4CS[C@@H](C)[C@@H](NC(=O)[C@@H]5CSC[C@@H](NC(=O)/C(=C/C)NC(=O)[C@H](C)N)C(=O)N[C@@H]([C@@H](C)CC)C(=O)NC(=C)C(=O)N[C@@H](CC(C)C)C(=O)N5)C(=O)N5CCC[C@H]5C(=O)NCC(=O)N4)C(=O)NCC(=O)N[C@@H](C)C(=O)N[C@@H](CC(C)C)C(=O)N[C@@H](CCSC)C(=O)NCC(=O)N3)[C@H](C)SC[C@H](NC2=O)C(=O)N[C@@H](Cc2c[nH]cn2)C(=O)N1)[C@@H](C)CC)C(C)C)C(=O)N[C@@H](CCCCN)C(=O)O [I1A] | 81.0 ± 1.8%
5 | C=C(NC(=O)[C@@H](NC(=O)[C@H](Cc1c[nH]cn1)NC(=O)[C@@H](NC(=O)[C@H](CO)NC(=O)[C@@H]1CS[C@@H](C)[C@H]2NC(=O)[C@H](C)NC(=O)[C@H](NC(=O)[C@H](CCCCN)NC(=O)[C@H](CCSC)NC(=O)[C@H](CC(N)=O)NC(=O)[C@@H]3CS[C@@H](C)[C@@H](NC(=O)[C@H](CCCCN)NC(=O)[C@@H]4CS[C@@H](C)[C@@H](NC(=O)[C@@H]5CSC[C@@H](NC(=O)/C(=C/C)NC(=O)[C@@H](N)Cc6ccc(O)cc6)C(=O)N[C@@H]([C@@H](C)CC)C(=O)NC(=C)C(=O)N[C@@H](CC(C)C)C(=O)N5)C(=O)N5CCC[C@H]5C(=O)NCC(=O)N4)C(=O)NCC(=O)N[C@@H](C)C(=O)N[C@@H](CC(C)C)C(=O)N[C@@H](CCSC)C(=O)NCC(=O)N3)[C@H](C)SC[C@H](NC2=O)C(=O)N[C@@H](Cc2c[nH]cn2)C(=O)N1)[C@@H](C)CC)C(C)C)C(=O)N[C@@H](CCCCN)C(=O)O [I1Y] | 22.6 ± 2.3%
6 | C=C(NC(=O)[C@@H](NC(=O)[C@H](Cc1c[nH]cn1)NC(=O)[C@@H](NC(=O)[C@H](CO)NC(=O)[C@@H]1CS[C@@H](C)[C@H]2NC(=O)[C@H](C)NC(=O)[C@H](NC(=O)[C@H](CCCCN)NC(=O)[C@H](CCSC)NC(=O)[C@H](CC(N)=O)NC(=O)[C@@H]3CS[C@@H](C)[C@@H](NC(=O)[C@H](CCCCN)NC(=O)[C@@H]4CS[C@@H](C)[C@@H](NC(=O)[C@@H]5CSC[C@@H](NC(=O)/C(=C/C)NC(=O)[C@@H](N)C(C)C)C(=O)N[C@@H]([C@@H](C)CC)C(=O)NC(=C)C(=O)N[C@@H](CC(C)C)C(=O)N5)C(=O)N5CCC[C@H]5C(=O)NCC(=O)N4)C(=O)NCC(=O)N[C@@H](C)C(=O)N[C@@H](CC(C)C)C(=O)N[C@@H](CCSC)C(=O)NCC(=O)N3)[C@H](C)SC[C@H](NC2=O)C(=O)N[C@@H](Cc2c[nH]cn2)C(=O)N1)[C@@H](C)CC)C(C)C)C(=O)N[C@@H](CCCCN)C(=O)O [I1V] | 58.1± 2.8%
7 | C=C(NC(=O)[C@@H](NC(=O)[C@H](Cc1c[nH]cn1)NC(=O)[C@@H](NC(=O)[C@H](CO)NC(=O)[C@@H]1CS[C@@H](C)[C@H]2NC(=O)[C@H](C)NC(=O)[C@H](NC(=O)[C@H](CCCCN)NC(=O)[C@H](CCSC)NC(=O)[C@H](CC(N)=O)NC(=O)[C@@H]3CS[C@@H](C)[C@@H](NC(=O)[C@H](CCCCN)NC(=O)[C@@H]4CS[C@@H](C)[C@@H](NC(=O)[C@@H]5CSC[C@@H](NC(=O)/C(=C/C)NC(=O)[C@@H](N)CCCCN)C(=O)N[C@@H]([C@@H](C)CC)C(=O)NC(=C)C(=O)N[C@@H](CC(C)C)C(=O)N5)C(=O)N5CCC[C@H]5C(=O)NCC(=O)N4)C(=O)NCC(=O)N[C@@H](C)C(=O)N[C@@H](CC(C)C)C(=O)N[C@@H](CCSC)C(=O)NCC(=O)N3)[C@H](C)SC[C@H](NC2=O)C(=O)N[C@@H](Cc2c[nH]cn2)C(=O)N1)[C@@H](C)CC)C(C)C)C(=O)N[C@@H](CCCCN)C(=O)O [I1K] | 9.2 ± 1.3%
8 | C=C(NC(=O)[C@@H](NC(=O)[C@H](Cc1c[nH]cn1)NC(=O)[C@@H](NC(=O)[C@H](CO)NC(=O)[C@@H]1CS[C@@H](C)[C@H]2NC(=O)[C@H](C)NC(=O)[C@H](NC(=O)[C@H](CCCCN)NC(=O)[C@H](CCSC)NC(=O)[C@H](CC(N)=O)NC(=O)[C@@H]3CS[C@@H](C)[C@@H](NC(=O)[C@H](CCCCN)NC(=O)[C@@H]4CS[C@@H](C)[C@@H](NC(=O)[C@@H]5CSC[C@@H](NC(=O)/C(=C/C)NC(=O)[C@@H](N)CCC(=O)O)C(=O)N[C@@H]([C@@H](C)CC)C(=O)NC(=C)C(=O)N[C@@H](CC(C)C)C(=O)N5)C(=O)N5CCC[C@H]5C(=O)NCC(=O)N4)C(=O)NCC(=O)N[C@@H](C)C(=O)N[C@@H](CC(C)C)C(=O)N[C@@H](CCSC)C(=O)NCC(=O)N3)[C@H](C)SC[C@H](NC2=O)C(=O)N[C@@H](Cc2c[nH]cn2)C(=O)N1)[C@@H](C)CC)C(C)C)C(=O)N[C@@H](CCCCN)C(=O)O [I1E] | 9.5 ± 0.7%
